In ChEMBL document CHEMBL1909046, “DrugMatrix in vitro pharmacology data”:

What was measured:
Estrogen receptor = biological target: T1, Estrogen receptor (Homo sapiens, UniProt P03372); conditions: sf9; further: in other assays of this panel Not Active means under 50% inhibition at 10 µM
T1 sequence (P03372 whole entry): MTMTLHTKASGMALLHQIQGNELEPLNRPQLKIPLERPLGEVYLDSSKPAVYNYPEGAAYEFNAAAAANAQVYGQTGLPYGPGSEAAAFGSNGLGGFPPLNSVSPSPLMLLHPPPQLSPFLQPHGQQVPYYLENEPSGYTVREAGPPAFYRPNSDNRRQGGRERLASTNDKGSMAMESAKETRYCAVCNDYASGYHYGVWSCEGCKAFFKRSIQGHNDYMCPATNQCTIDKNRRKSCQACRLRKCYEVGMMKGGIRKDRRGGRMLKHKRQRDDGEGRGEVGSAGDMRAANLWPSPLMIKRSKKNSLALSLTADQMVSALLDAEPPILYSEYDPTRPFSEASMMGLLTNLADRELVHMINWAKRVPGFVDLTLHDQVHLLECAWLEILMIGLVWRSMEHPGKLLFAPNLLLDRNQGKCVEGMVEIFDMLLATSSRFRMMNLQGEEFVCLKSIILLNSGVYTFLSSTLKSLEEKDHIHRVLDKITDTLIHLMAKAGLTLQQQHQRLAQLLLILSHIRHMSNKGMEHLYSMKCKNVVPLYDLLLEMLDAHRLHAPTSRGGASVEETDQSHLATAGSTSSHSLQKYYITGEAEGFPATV

[1] = biological target: T2, Polyunsaturated fatty acid lipoxygenase ALOX15 (Oryctolagus cuniculus, UniProt P12530); assay: biochemical; type: tissue-based, Reticulocytes; conditions: reticulocytes;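 further: inhibition of 15-lipoxygenase enzyme activity measured with linoleic acid as the substrate; in other assays of this panel Not Active means under 50% inhibition at 10 µM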
T2 sequence (P12530 whole entry): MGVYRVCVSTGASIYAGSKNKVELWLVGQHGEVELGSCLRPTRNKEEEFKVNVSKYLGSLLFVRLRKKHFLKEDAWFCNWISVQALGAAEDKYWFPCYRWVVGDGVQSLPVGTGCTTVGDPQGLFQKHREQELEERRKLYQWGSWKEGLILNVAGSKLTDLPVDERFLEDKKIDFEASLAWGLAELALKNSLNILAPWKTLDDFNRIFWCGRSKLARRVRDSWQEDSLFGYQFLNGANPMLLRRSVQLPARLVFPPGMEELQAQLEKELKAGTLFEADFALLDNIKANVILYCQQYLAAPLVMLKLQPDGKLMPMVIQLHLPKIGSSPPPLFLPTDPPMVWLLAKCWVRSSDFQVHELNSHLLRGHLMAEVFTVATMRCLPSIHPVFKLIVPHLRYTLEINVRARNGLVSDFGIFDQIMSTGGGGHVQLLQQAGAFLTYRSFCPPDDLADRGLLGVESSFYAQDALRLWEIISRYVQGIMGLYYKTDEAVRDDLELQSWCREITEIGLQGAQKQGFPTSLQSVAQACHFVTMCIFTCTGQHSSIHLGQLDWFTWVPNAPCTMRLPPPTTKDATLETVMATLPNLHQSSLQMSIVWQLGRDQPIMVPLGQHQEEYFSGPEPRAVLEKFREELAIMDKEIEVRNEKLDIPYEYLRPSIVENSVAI

[2] = DRUGMATRIX: GABAA, Muscimol, Central radioligand binding (ligand: [3H] Muscimol); type: cell membranes, Rattus norvegicus, Wistar, Brain, Membrane; conditions: Not Active = under 50% inhibition at 10 µM
Melanocortin receptor 4 = Melanocortin receptor 4 (Homo sapiens, UniProt P32245); type: cell membranes, Membrane; conditions: hek293; further: in other assays of this panel Not Active means under 50% inhibition at 10 µM
Melanocortin receptor 4, sequence (P32245 whole entry): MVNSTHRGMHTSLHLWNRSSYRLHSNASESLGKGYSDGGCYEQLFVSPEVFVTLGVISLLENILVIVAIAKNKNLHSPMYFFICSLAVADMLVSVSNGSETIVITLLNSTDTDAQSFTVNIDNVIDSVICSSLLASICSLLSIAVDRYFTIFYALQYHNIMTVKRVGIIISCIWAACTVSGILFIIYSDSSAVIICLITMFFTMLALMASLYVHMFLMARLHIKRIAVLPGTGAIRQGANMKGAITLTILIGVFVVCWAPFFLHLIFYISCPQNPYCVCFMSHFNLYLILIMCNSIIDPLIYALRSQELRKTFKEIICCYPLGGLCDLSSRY

Glucocorticoid receptor = biological target: T3, Glucocorticoid receptor (Homo sapiens, UniProt P04150); conditions: hela s3; further: in other assays of this panel Not Active means under 50% inhibition at 10 µM
T3 sequence (P04150 whole entry): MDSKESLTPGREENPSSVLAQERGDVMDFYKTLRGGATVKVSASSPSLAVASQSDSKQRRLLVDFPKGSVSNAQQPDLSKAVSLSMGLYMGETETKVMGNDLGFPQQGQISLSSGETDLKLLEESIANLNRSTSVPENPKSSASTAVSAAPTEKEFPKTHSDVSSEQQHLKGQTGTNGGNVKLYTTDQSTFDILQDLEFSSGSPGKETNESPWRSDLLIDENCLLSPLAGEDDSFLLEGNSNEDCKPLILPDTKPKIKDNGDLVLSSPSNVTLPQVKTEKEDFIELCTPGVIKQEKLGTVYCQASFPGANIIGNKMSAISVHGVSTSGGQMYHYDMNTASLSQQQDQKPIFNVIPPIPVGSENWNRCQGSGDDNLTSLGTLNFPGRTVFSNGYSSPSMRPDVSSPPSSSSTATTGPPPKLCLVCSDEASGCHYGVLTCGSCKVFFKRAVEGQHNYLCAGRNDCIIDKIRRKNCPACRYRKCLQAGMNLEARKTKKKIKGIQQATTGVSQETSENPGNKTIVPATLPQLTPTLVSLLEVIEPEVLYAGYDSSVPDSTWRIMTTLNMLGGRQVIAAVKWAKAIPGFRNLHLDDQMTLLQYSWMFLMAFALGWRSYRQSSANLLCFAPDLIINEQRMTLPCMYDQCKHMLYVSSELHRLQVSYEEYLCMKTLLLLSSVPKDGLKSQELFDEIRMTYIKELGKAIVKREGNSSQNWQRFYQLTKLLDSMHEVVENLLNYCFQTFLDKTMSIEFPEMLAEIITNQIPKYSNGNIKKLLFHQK

[3] = DRUGMATRIX: Sodium/nucleoside co-transporter radioligand binding (ligand: nitrobenzylthioinosine); type: cell membranes, Cavia porcellus, Dunkin-Hartley, Cerebral cortex, Membrane; conditions: Not Active = under 50% inhibition at 10 µM
Cathepsin G = biological target: T4, Cathepsin G (Homo sapiens, UniProt P08311); type: tissue-based; conditions: neutrophil
T4 sequence (P08311 whole entry): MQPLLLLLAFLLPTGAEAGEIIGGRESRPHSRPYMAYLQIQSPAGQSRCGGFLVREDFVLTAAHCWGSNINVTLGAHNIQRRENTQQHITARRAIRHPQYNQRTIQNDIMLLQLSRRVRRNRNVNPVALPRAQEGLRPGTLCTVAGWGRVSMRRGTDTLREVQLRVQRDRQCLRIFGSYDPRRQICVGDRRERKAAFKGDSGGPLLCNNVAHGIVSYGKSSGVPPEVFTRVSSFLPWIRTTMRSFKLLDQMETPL

[4] = biological target: Delta-type opioid receptor (Homo sapiens, UniProt P41143); type: cell membranes, HEK293, Membrane; further: in other assays of this panel Not Active means under 50% inhibition at 10 µM
Delta-type opioid receptor, sequence (P41143 whole entry): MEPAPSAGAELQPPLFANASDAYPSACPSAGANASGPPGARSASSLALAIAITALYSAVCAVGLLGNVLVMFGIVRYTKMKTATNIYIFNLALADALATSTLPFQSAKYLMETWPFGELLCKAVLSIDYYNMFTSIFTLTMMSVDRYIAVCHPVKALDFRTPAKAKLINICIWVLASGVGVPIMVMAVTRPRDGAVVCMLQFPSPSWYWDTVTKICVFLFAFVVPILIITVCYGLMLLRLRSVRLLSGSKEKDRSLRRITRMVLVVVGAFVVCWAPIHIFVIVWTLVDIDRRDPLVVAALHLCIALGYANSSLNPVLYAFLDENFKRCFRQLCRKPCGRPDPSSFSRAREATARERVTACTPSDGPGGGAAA

Molecule	IC50 (Estrogen receptor)	IC50 [1]	IC50 [2]	Ki [2]	IC50 (Melanocortin receptor 4)	IC50 (Glucocorticoid receptor)	IC50 [3]	Ki [3]	IC50 (Cathepsin G)	IC50 ([4]; hek293)	Ki (Cathepsin G)	IC50 ([4]; read-out: IC50) [µM]	Ki ([4]; read-out: Ki) [µM]	Ki (Estrogen receptor)	Ki [1]	Ki (Melanocortin receptor 4)	Ki (Glucocorticoid receptor)	Ki ([4]; hek293)
COc1cc(N)nc2[nH]c(-c3ccc(F)cc3)c(-c3ccncc3)c12	Not Active	Not Active	Not Active	Not Active	Not Active	Not Active	Not Active	Not Active	Not Active	Not Active	–	–	–	–	–	–	–	–
COc1ccc(/C=C/C(=O)Nc2ccccc2C(=O)O)cc1OC	Not Active	Not Active	Not Active	Not Active	Not Active	Not Active	Not Active	Not Active	Not Active	Not Active	–	–	–	–	–	–	–	–
CC(=O)Nc1nnc(S(N)(=O)=O)s1 [ACETAZOLAMIDE]	Not Active	Not Active	–	–	Not Active	Not Active	–	–	Not Active	Not Active	–	–	–	–	–	–	–	–
CC(C)OC(=O)C(C)(C)Oc1ccc(C(=O)c2ccc(Cl)cc2)cc1 [FENOFIBRATE]	Not Active	Not Active	–	–	Not Active	Not Active	–	–	–	Not Active	Not Active	–	–	–	–	–	–	–
OCCN1CCN(CCCN2c3ccccc3Sc3ccc(C(F)(F)F)cc32)CC1 [FLUPHENAZINE]	Not Active	Not Active	–	–	Not Active	Not Active	–	–	Not Active	–	–	24	8.47	–	–	–	–	–
O=P(O)(O)C(O)(Cc1cccnc1)P(=O)(O)O [RISEDRONIC ACID]	Not Active	Not Active	Not Active	Not Active	Not Active	Not Active	Not Active	Not Active	Not Active	Not Active	–	–	–	–	–	–	–	–
C=C(C)[C@H]1Cc2c(ccc3c2O[C@@H]2COc4cc(OC)c(OC)cc4[C@@H]2C3=O)O1 [ROTENONE]	–	Not Active	Not Active	Not Active	Not Active	Not Active	Not Active	Not Active	Not Active	Not Active	–	–	–	–	–	–	–	–
C#CCN(C)[C@H](C)Cc1ccccc1 [SELEGILINE]	Not Active	Not Active	Not Active	Not Active	Not Active	Not Active	Not Active	Not Active	Not Active	Not Active	–	–	–	–	–	–	–	–
CN[C@@H]1[C@H](O)[C@H](NC)[C@H]2O[C@@]3(O)C(=O)C[C@@H](C)O[C@H]3O[C@@H]2[C@H]1O [SPECTINOMYCIN]	Not Active	Not Active	Not Active	Not Active	Not Active	Not Active	Not Active	Not Active	Not Active	Not Active	–	–	–	–	–	–	–	–
Nc1ccc(S(=O)(=O)Nc2nccs2)cc1 [SULFATHIAZOLE]	Not Active	Not Active	Not Active	Not Active	Not Active	Not Active	Not Active	Not Active	Not Active	Not Active	–	–	–	–	–	–	–	–
CC(C)(C)NC[C@H](O)COc1nsnc1N1CCOCC1 [TIMOLOL]	–	Not Active	Not Active	Not Active	Not Active	Not Active	Not Active	Not Active	Not Active	Not Active	–	–	–	–	–	–	–	–
C[C@@H]1C[C@H]2[C@@H]3CCC4=CC(=O)C=C[C@]4(C)C3=CC[C@]2(C)[C@H]1C(=O)CN1CCN(c2cc(N3CCCC3)nc(N3CCCC3)n2)CC1 [TIRILAZAD]	Not Active	Not Active	Not Active	Not Active	Not Active	Not Active	Not Active	Not Active	Not Active	Not Active	–	–	–	–	–	–	–	–
COc1ccc(CN2CCNCC2)c(OC)c1OC [TRIMETAZIDINE]	Not Active	Not Active	Not Active	Not Active	Not Active	Not Active	Not Active	Not Active	Not Active	Not Active	–	–	–	–	–	–	–	–
COc1cc(C(=O)NS(=O)(=O)c2ccccc2C)ccc1Cc1cn(C)c2ccc(NC(=O)OC3CCCC3)cc12 [ZAFIRLUKAST]	Not Active	Not Active	Not Active	Not Active	Not Active	Not Active	Not Active	Not Active	Not Active	Not Active	–	–	–	–	–	–	–	–
Cc1cn([C@H]2C[C@H](N=[N+]=[N-])[C@@H](CO)O2)c(=O)[nH]c1=O [ZIDOVUDINE]	Not Active	Not Active	Not Active	Not Active	Not Active	Not Active	Not Active	Not Active	Not Active	Not Active	–	–	–	–	–	–	–	–
STANNOUS FLUORIDE	Not Active	Not Active	Not Active	Not Active	Not Active	Not Active	Not Active	Not Active	Not Active	Not Active	Not Active	–	–	Not Active	Not Active	Not Active	Not Active	Not Active
THIMEROSAL	Not Active	Not Active	Not Active	Not Active	Not Active	Not Active	Not Active	Not Active	Not Active	Not Active	Not Active	–	–	Not Active	Not Active	Not Active	Not Active	Not Active
